Test results from ChEMBL document CHEMBL1201862, “PubChem BioAssay data set” (2004).
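Values below derive from 48-hour exposures of cells grown in 96-well plates, with endpoints linearly interpolated between the two concentrations bracketing the appropriate inhibition level. GI50 marks 50% less growth.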 Active and inactive are the calls of the source. No stated cut-off is given here; in the data, active = GI50 up to about 1.1 µM and inactive = higher.

Assays:
Experiment in all cases: NCI anticancer screen, dose series, 48 h
UACC-257 = tested on: UACC-257
NCI-H460 = tested on: NCI-H460
SR = tested on: SR
SK-MEL-5 = tested on: SK-MEL-5
HCT-116 = tested on: HCT-116
DU-145 = tested on: DU-145
SNB-75 = tested on: SNB-75
OVCAR-5 = tested on: OVCAR-5
OVCAR-8 = tested on: OVCAR-8
SF-295 = tested on: SF-295
IGROV-1 = tested on: IGROV-1
SK-MEL-2 = tested on: SK-MEL-2
SNB-19 = tested on: SNB-19
MCF7 = tested on: MCF7
CCRF-CEM = tested on: CCRF-CEM
MDA-N = tested on: MDA-N
UO-31 = tested on: UO-31
HL-60 = tested on: HL-60
Malme-3M = tested on: Malme-3M
KM12 = tested on: KM12

| SMILES | GI50 (UACC-257) | GI50 (NCI-H460) | GI50 (SR) | GI50 (SK-MEL-5) | GI50 (HCT-116) | GI50 (DU-145) | GI50 (SNB-75) | GI50 (OVCAR-5) | GI50 (OVCAR-8) | GI50 (SF-295) | GI50 (IGROV-1) | GI50 (SK-MEL-2) | GI50 (SNB-19) | GI50 (MCF7) | GI50 (CCRF-CEM) | GI50 (MDA-N) | GI50 (UO-31) | GI50 (HL-60) | GI50 (Malme-3M) | GI50 (KM12) |
| --- | --- | --- | --- | --- | --- | --- | --- | --- | --- | --- | --- | --- | --- | --- | --- | --- | --- | --- | --- | --- |
| CC(=O)NCCc1c(-c2[nH]c3ccccc3c2CCNC(C)=O)[nH]c2ccccc12 | > 100 µM (inactive) | 42.2 µM (inactive) | > 100 µM (inactive) | > 100 µM (inactive) | > 100 µM (inactive) | > 100 µM (inactive) | 47.6 µM (inactive) | 66.7 µM (inactive) | 78.2 µM (inactive) | > 100 µM (inactive) | 24.6 µM (inactive) | > 100 µM (inactive) | > 100 µM (inactive) | > 100 µM (inactive) | > 100 µM (inactive) | > 100 µM (inactive) | > 100 µM (inactive) | – | – | – |
| CSC1=N/C(=C\c2ccc(C)cc2)C(=O)N1CN1CCOCC1 | – | – | 69.3 µM (inactive) | 55.8 µM (inactive) | 35.7 µM (inactive) | 76 µM (inactive) | 46.3 µM (inactive) | > 100 µM (inactive) | 45.6 µM (inactive) | > 100 µM (inactive) | 28.2 µM (inactive) | > 100 µM (inactive) | 37.5 µM (inactive) | 31.2 µM (inactive) | 41.4 µM (inactive) | > 100 µM (inactive) | 20.2 µM (inactive) | > 100 µM (inactive) | > 100 µM (inactive) | 91.8 µM (inactive) |
| Cc1cc(=O)nc(S(=O)(=O)NC(=O)Nc2cccc(Cl)c2)[nH]1 | > 100 µM (inactive) | > 100 µM (inactive) | > 100 µM (inactive) | > 100 µM (inactive) | > 100 µM (inactive) | > 100 µM (inactive) | 49.4 µM (inactive) | > 100 µM (inactive) | > 100 µM (inactive) | 16.2 µM (inactive) | > 100 µM (inactive) | > 100 µM (inactive) | > 100 µM (inactive) | > 100 µM (inactive) | 64.4 µM (inactive) | > 100 µM (inactive) | 3.43 µM (inactive) | – | > 100 µM (inactive) | 14.7 µM (inactive) |
| N#Cc1cc2cc3c4c(c2oc1=O)CCCN4CCC3 | > 100 µM (inactive) | > 100 µM (inactive) | > 100 µM (inactive) | > 100 µM (inactive) | > 100 µM (inactive) | > 100 µM (inactive) | > 76.4 µM (inactive) | > 100 µM (inactive) | > 100 µM (inactive) | > 100 µM (inactive) | > 100 µM (inactive) | > 100 µM (inactive) | > 100 µM (inactive) | > 100 µM (inactive) | > 100 µM (inactive) | > 100 µM (inactive) | > 100 µM (inactive) | > 100 µM (inactive) | – | > 100 µM (inactive) |
| c1ccc(N2N=C3N(c4ccccc4)C2N3c2ccccc2)cc1 | 23.1 µM (inactive) | 31.1 µM (inactive) | – | 21.6 µM (inactive) | 31.3 µM (inactive) | 56.5 µM (inactive) | 17.8 µM (inactive) | 71.9 µM (inactive) | 35.9 µM (inactive) | 36.1 µM (inactive) | 31.4 µM (inactive) | 24.3 µM (inactive) | 87.1 µM (inactive) | 31.9 µM (inactive) | 20.7 µM (inactive) | 19.4 µM (inactive) | 58.9 µM (inactive) | 38.5 µM (inactive) | 17.5 µM (inactive) | 33.7 µM (inactive) |
| C/C(=N\NC(=S)NC(C)(C)C)c1ccccn1 | < 0.01 µM (active) | – | < 0.01 µM (active) | 0.153 µM (active) | < 0.01 µM (active) | 1.69 µM (inactive) | 11.7 µM (inactive) | – | – | 0.589 µM (active) | < 0.01 µM (active) | 0.408 µM (active) | 4.5 µM (inactive) | < 0.01 µM (active) | < 0.01 µM (active) | 0.131 µM (active) | 0.189 µM (active) | < 0.01 µM (active) | 2.83 µM (inactive) | 0.574 µM (active) |
| Oc1ccc(-c2nc3ccc(Cl)cc3s2)cc1 | 19.6 µM (inactive) | 18.8 µM (inactive) | 23.7 µM (inactive) | 18.2 µM (inactive) | 16 µM (inactive) | 17.3 µM (inactive) | – | 17.9 µM (inactive) | 19.3 µM (inactive) | 19.3 µM (inactive) | 16.5 µM (inactive) | 18.4 µM (inactive) | 20.2 µM (inactive) | 7.41 µM (inactive) | 5.35 µM (inactive) | 18.8 µM (inactive) | 14.2 µM (inactive) | 13.8 µM (inactive) | 19.3 µM (inactive) | 16.3 µM (inactive) |
